Like-named read-outs stand apart in the source and are kept apart here. Marks after values point to notes of the source that are not given here.
Key:
[1] = design: method as in earlier work; details: 6 h, cited from earlier work
[2] = design: method as in PMID 31898492; details: octanol/pH 7.4 buffer, averaged from high and low concentration partition samples; cited from earlier work
[3] = pKa by potentiometric titration; type: physicochemical
Procedure: Octanol/pH 7.4 buffer partitioning experiments were conducted using a shake flask method, and pKa was assessed by potentiometric titration. Both methods have been described previously.

[4] = Kinetic solubility; type: physicochemical
Procedure: Solubility assays were carried out on a Biomek FX lab automation workstation (Beckman Coulter, Inc., Fullerton, CA) using µSOL Evolution software (pION Inc., Woburn, MA). Compound stock (10 mM in DMSO, 10 µL) was added to 1-propanol (190 µL) to make a reference stock plate. Reference stock solution (5 µL) was mixed with 1-propanol (70 µL) and citrate phosphate buffered saline (75 µL) to make the reference plate and the UV spectrum (250 nm–500 nm) of the […] was read. Test compound stock (10 mM in DMSO, 6 µL) was added to buffer (594 µL) in a 96-well storage plate and mixed. The storage plate was sealed and incubated at room temperature for 18 h. The suspension was then filtered through a 96-well filter plate (pION Inc., Woburn, MA). Filtrate (75 µL) was mixed with 1-propanol (75 µL) to make the sample plate, and the UV spectrum (250 nm – 500 nm) of the sample plate was read. Calculation was carried out by µSOL Evolution software based on the […] (area under curve) of UV spectrum of the sample plate and the reference plate. All compounds were tested in triplicate.

[5] = tested on: Caco-2 cells; assay: Caco-2 permeability; type: in vitro ADME; details: for Caco-2 Efflux Ratio: B→A / A→B
Procedure: Caco-2 cells were maintained at 37 °C in a humidified incubator with an atmosphere of 5% CO2. The cells were cultured in Eagle's Minimum Essential Medium (EMEM) containing 20% fetal bovine serum (FBS) in 75 cm^2 flasks, supplemented with 100 units/ml of penicillin and 100 µg/mL of streptomycin. The Caco-2 cells were seeded onto inserts of a 96-well plate (HTS-Transwell inserts, surface area: 0.143 cm^2, Corning) at a cell density of 0.5 × 10^5 cells/insert. The culture medium was replaced every 2 days, and the cells were maintained for 7 days at 37 °C and 5% CO2. Caco-2 cell monolayers with trans epithelial electrical resistance (TEER) values greater than 400 Ω cm^2 were used for the subsequent assays. The permeability assay was initiated by adding an appropriate volume of HBSS/HEPES containing test compounds to either the apical (A to B) or basolateral (B to A) side of the monolayer, then adding the blank HBSS/HEPES buffer in the receiving compartment, the basolateral or apical side of the monolayer. The Caco-2 cell monolayers were then incubated for 2 h at 37 °C. To make a sample plate, fractions were collected from the basolateral side or apical side and quenched by adding onefold volume of acetonitrile with internal standard (2 µM warfarin) to each well. In a reference plate, the above HBSS/HEPES buffer containing test compounds were diluted with quenching solvent the same as that in the sample plate. 10 µL of supernatants were injected and analysis by UPLC/MS (Waters; Milford, MA). The test compound concentrations were quantified by comparing the sample well to the reference well via peak areas. The A→B (or B→A) apparent permeability coefficients (Papp, 10^–6 cm/s) of each compound were calculated using the equation, Papp = dQ/dt × 1/AC0. The flux of a drug across the monolayer was dQ/dt (µmol/s). The initial drug concentration on the apical or basolateral side was C0 (µM). The surface area of the monolayer was A (cm^2). The efflux ratio is the ratio of apparent permeability for a test compound in the basolateral to apical (B → A) direction relative to that in the A → B direction. All compounds were tested in triplicate.

[6] = tested on: recombinant human CYP1A1, 1A2, 1B1, 2B6, 2C8, 2C9, 2C19, 2D6, 3A4; assay: Recombinant human cytochrome P450 (rhCYP) metabolism; type: in vitro ADME
Procedure: SJ733 was first pre-incubated with Bactosomes™ (Cypex Ltd, final P450 concentration: CYP1A1 25 pmol/mL, CYP1A2 100 pmol/mL,CYP1B1 100 pmol/mL, CYP2B6 100 pmol/mL, CYP2C8 50 pmol/mL, CYP2C9, 25 pmol/mL, CYP2C19 100 pmol/mL, CYP2D6 50 pmol/mL and CYP3A4 25 pmol/mL, 0.1 M phosphate buffer pH 7.4) at 37 °C prior to the addition of NADPH (final concentration 1 mM) to initiate the reaction with a final incubation volume of 50 μL. Incubations were also performed using control Bactosomes™ (no P450 enzymes present) to reveal any non-enzymatic degradation. Control compounds known to be metabolized specifically by each P450 isoform were included individually. Test articles and controls were incubated with each isoform for 0, 5, 15, 30, and 45 min. The reactions were stopped by transferring 20 μL of the reaction mixture to 60 μL methanol at the appropriate timepoints.

[7] = design: method as in PMID 31898492; details: human whole blood; cited from earlier work

SMILES | Solubility ([1]; FaSSIF-V2 pH 6.5, 37°C) | Solubility ([1]; FeSSIF-V2 pH 5.8, 37°C) | Solubility ([1]; Phosphate buffer pH 7.4, 37°C) | LogD (7.4) Shake flask [2] | pKa [3] | Kinetic solubility ([4]; pH 3) [µM] | Kinetic solubility ([4]; pH 5) [µM] | Kinetic solubility ([4]; pH 7.4) [µM] | Permeability, Caco-2 ([5]; Apical to Basal) | Permeability, Caco-2 ([5]; Basolateral to Apical) | Caco-2 Efflux Ratio [5] | formation of metabolites ([6]; incubation with CYP1A1, 1A2, 1B1, 2B6, 2C9, or 2C19 recombinant enzymes) | formation of metabolites ([6]; incubations with CYP2C8, 2D6, and 3A4 recombinant enzymes) | B/P ratio [7]
N#Cc1cc(NC(=O)[C@H]2c3ccccc3C(=O)N(CC(F)(F)F)[C@@H]2c2cccnc2)ccc1F [(+)-SJ733] | 216^b µM | 254^b µM | 246^b µM | 3.90 ± 0.01^a,b |  |  |  |  |  |  |  |  |  | 
N#Cc1cc(NC(=O)C2c3ccccc3C(=O)N(CC(F)(F)F)C2c2cn[nH]c2)ccc1F (racemic) [(r)-SJ311] |  |  |  |  | 11.1 ± 0.3 | 80 ± 7 | 80 ± 7 | 66 ± 7 | 12.5 ± 0.7 10^–6 cm/s | 16.6 ± 2.0 10^–6 cm/s | 1.34 ± 0.21 |  |  | 
N#Cc1cc(NC(=O)[C@H]2c3ccccc3C(=O)N(CC(F)(F)F)[C@@H]2c2cccnc2)ccc1F (racemic) [SJ733] |  |  |  |  |  |  |  |  |  |  |  | no detectable formation of metabolites | Metabolite formation was only observed | 
N#Cc1cc(NC(=O)C2c3ccccc3C(=O)N(CC(F)(F)F)C2c2cccnc2)ccc1F (racemic) [(r)-SJ733] |  |  |  |  |  | 84 ± 3 | 84 ± 3 | 65 ± 4 | 9.4 ± 1.6 10^–6 cm/s | 11.0 ± 1.6 10^–6 cm/s | 1.17 ± 0.04 |  |  | 0.72 ± 0.02^b
